Results reported in the SangsterLogP compilation.

Experiment: method code SF-HPLC, from DOI: 10.1016/j.ejmech.2006.12.027, PMID: 17306423

Row | logP | Compound
1 | 1.9 | Cc1ccc(C2=[N+]([O-])C(C)(C)C(C)(C)N2O)cc1
2 | 1.51 | CC1(C)N(O)C(c2ccc3c(c2)OCO3)=[N+]([O-])C1(C)C
3 | 0.62 | CC1(C)N(O)C(c2ccco2)=[N+]([O-])C1(C)C
4 | 0.77 | COc1ccc(C2=[N+]([O-])C(C)(C)C(C)(C)N2O)c(OC)c1
5 | 0.62 | CC1(C)N(O)C(c2ccc(O)cc2)=[N+]([O-])C1(C)C
6 | 1.14 | CC1(C)N(O)C(c2cccc(O)c2)=[N+]([O-])C1(C)C
7 | 1.17 | CC1(C)N(O)C(c2ccccc2O)=[N+]([O-])C1(C)C
8 | 1.14 | COc1cc(C2=[N+]([O-])C(C)(C)C(C)(C)N2O)ccc1O
9 | 2.02 | CN(C)c1ccc(C2=[N+]([O-])C(C)(C)C(C)(C)N2O)cc1
10 | 1.62 | COc1ccc(C2=[N+]([O-])C(C)(C)C(C)(C)N2O)cc1
11 | 1.37 | CC1(C)N(O)C(c2ccccc2)=[N+]([O-])C1(C)C
12 | 1.15 | COc1ccc(C2=[N+]([O-])C(C)(C)C(C)(C)N2O)cc1OC
13 | -0.52 | CC1(C)N(O)C(c2ccc(OCC(=O)O)cc2)=[N+]([O-])C1(C)C
14 | 1.64 | CC1(C)N(O)C(c2cccc([N+](=O)[O-])c2)=[N+]([O-])C1(C)C
15 | 1.93 | CC1(C)N(O)C(c2ccc(Cl)cc2Cl)=[N+]([O-])C1(C)C
16 | 2.46 | CC1(C)N(O)C(c2ccc(Br)cc2)=[N+]([O-])C1(C)C
17 | 0.92 | COc1ccc(C2=[N+]([O-])C(C)(C)C(C)(C)N2O)cc1O
18 | 1.68 | CC1(C)N(O)C(c2ccc([N+](=O)[O-])cc2)=[N+]([O-])C1(C)C
19 | 0.82 | CC1(C)N(O)C(c2ccccc2F)=[N+]([O-])C1(C)C
20 | 0.91 | CC1(C)N(O)C(c2ccccc2[N+](=O)[O-])=[N+]([O-])C1(C)C
21 | 2.33 | CC1(C)N(O)C(c2ccc(Cl)cc2)=[N+]([O-])C1(C)C

Row | Compound | logP
22 | CC1(C)N(O)C(c2cccnc2)=[N+]([O-])C1(C)C | 0.51
